Paper PMC5031696, “Synthesis, Biodistribution and In vitro Evaluation of Brain Permeable High Affinity Type 2 Cannabinoid Receptor Agonists [^11C]MA2 and [^18F]MA3” (Frontiers in Neuroscience, 2016)

Assay: biodistribution studies in male NMRI mice
Type: in vivo, mouse
Conditions: mouse, in vivo; for % ID bladder + urine / % ID blood / % ID bone / % ID heart / % ID intestines / % ID kidneys / % ID liver / % ID lungs / % ID pancreas / % ID spleen / % ID stomach / SUV blood / SUV bone / SUV brain / SUV heart / SUV kidneys / SUV liver / SUV lungs / SUV pancreas / SUV spleen / % ID brain: iv
Experimental: The tissue distribution and kinetics of [^11C]MA2 and [^18F]MA3 were studied in male NMRI mice at 2, 10, 30, and 60 min post injection of the tracer. The results of the biodistribution studies are presented in Table 1 ([^11C]MA2) and Table 2 ([^18F]MA3) as percentage of injected dose (% ID) and standard uptake value (SUV).
The biodistribution of [^11C]MA2 and [^18F]MA3 was studied in normal male Naval Medical Research Institute (NMRI) mice. A solution of HPLC-purified [^11C]MA2 or [^18F]MA3 was diluted with saline to obtain an ethanol concentration < 10%. Mice were anesthetized with isoflurane (2% in oxygen) and injected intravenously (i.v.) with [^11C]MA2 (~ 9.25 MBq) or [^18F]MA3 (~ 0.92 MBq) via a lateral tail vein. The mice were sacrificed by decapitation at 2, and 60 min post injection (for [^11C]MA2, n = 4) and at 2, 10, 30, or 60 min post injection (for [^18F]MA3, n = 3 or 4 per time point) and dissected. Blood, organs, and other body parts were collected in tared tubes and the radioactivity in each tube was measured using an automated gamma counter. The tubes containing selected organs and blood were weighed. For calculation of total radioactivity in blood, blood mass was assumed to be 7% of the body mass (Fritzberg et al., [1982]). Quantitative data are expressed as mean ± standard deviation (SD). Means were compared using an unpaired two-tailed student t-test. Values were considered statistically significant for P ≤ 0.05.

## Fc1ccc(-c2noc(CCCNc3cnc4ccc(OCC[18F])cc4c3)n2)c(Cl)c1 [[^18F]MA3]
male, NMRI
  blood % ID 2 min/60 min ratio: 5.2
  brain % ID 2 min/60 min ratio: 9.2
male, NMRI, 2 min
  % ID bladder + urine: 0.2 ± 0.2 % ID
  % ID blood: 5.4 ± 0.4 % ID
  % ID bone: 5.3 ± 1.2 % ID
  % ID heart: 1.2 ± 0.1 % ID
  % ID intestines: 9.4 ± 3.9 % ID
  % ID kidneys: 9.0 ± 1.2 % ID
  % ID liver: 31.4 ± 8.4 % ID
  % ID lungs: 1.2 ± 0.3 % ID
  % ID pancreas: 1.4 ± 0.3 % ID
  % ID spleen: 0.4 ± 0.1 % ID
  % ID stomach: 1.4 ± 0.2 % ID
  SUV blood: 0.8 ± 0.1
  SUV bone: 0.4 ± 0.1
  SUV brain: 1.1 ± 0.1
  SUV heart: 3.4 ± 0.3
  SUV kidneys: 5.4 ± 0.4
  SUV liver: 7.2 ± 2.0
  SUV lungs: 2.8 ± 0.7
  SUV pancreas: 3.0 ± 0.5
  SUV spleen: 5.1 ± 0.6
male, NMRI, 10 min
  % ID bladder + urine: 0.4 ± 0.0 % ID
  % ID blood: 2.2 ± 0.3 % ID
  % ID bone: 3.5 ± 0.2 % ID
  % ID brain: 1.0 ± 0.1 % ID
  % ID heart: 0.3 ± 0.0 % ID
  % ID intestines: 30.8 ± 6.1 % ID
  % ID kidneys: 1.6 ± 0.2 % ID
  % ID liver: 26.1 ± 3.4 % ID
  % ID lungs: 0.5 ± 0.0 % ID
  % ID pancreas: 0.4 ± 0.1 % ID
  % ID spleen: 0.3 ± 0.1 % ID
  % ID stomach: 0.5 ± 0.0 % ID
  SUV blood: 0.3 ± 0.0
  SUV bone: 0.3 ± 0.0
  SUV brain: 0.5 ± 0.0
  SUV heart: 0.6 ± 0.0
  SUV kidneys: 1.1 ± 0.1
  SUV liver: 4.7 ± 0.7
  SUV lungs: 0.7 ± 0.1
  SUV pancreas: 0.8 ± 0.0
  SUV spleen: 0.5 ± 0.0
male, NMRI, 30 min
  % ID bladder + urine: 1.7 ± 0.3 % ID
  % ID blood: 1.2 ± 0.1 % ID
  % ID bone: 1.6 ± 0.5 % ID
  % ID brain: 0.3 ± 0.1 % ID
  % ID heart: 0.1 ± 0.0 % ID
  % ID intestines: 56.2 ± 5.4 % ID
  % ID kidneys: 1.0 ± 0.2 % ID
  % ID liver: 17.3 ± 6.7 % ID
  % ID lungs: 0.2 ± 0.0 % ID
  % ID pancreas: 0.2 ± 0.1 % ID
  % ID spleen: 0.1 ± 0.0 % ID
  % ID stomach: 0.8 ± 1.0 % ID
  SUV blood: 0.2 ± 0.0
  SUV bone: 0.1 ± 0.0
  SUV brain: 0.2 ± 0.0
  SUV heart: 0.4 ± 0.1
  SUV kidneys: 0.6 ± 0.1
  SUV liver: 3.7 ± 1.4
  SUV lungs: 0.4 ± 0.1
  SUV pancreas: 0.4 ± 0.1
  SUV spleen: 0.5 ± 0.3
male, NMRI, 60 min
  % ID blood: 1.0 ± 0.3 % ID
  % ID bone: 2.2 ± 0.3 % ID
  % ID brain: 0.1 ± 0.0 % ID
  % ID heart: 0.1 ± 0.0 % ID
  % ID kidneys: 0.7 ± 0.3 % ID
  % ID liver: 10.2 ± 5.2 % ID
  % ID lungs: 0.1 ± 0.0 % ID
  % ID pancreas: 0.1 ± 0.0 % ID
  % ID spleen: 0.03 ± 0.01 % ID
  % ID stomach: 4.4 ± 5.1 % ID
  SUV blood: 0.1 ± 0.0
  SUV bone: 0.2 ± 0.0
  SUV brain: 0.1 ± 0.0
  SUV heart: 0.3 ± 0.0
  SUV kidneys: 0.5 ± 0.1
  SUV lungs: 0.3 ± 0.1
  SUV pancreas: 0.3 ± 0.1
  SUV spleen: 0.5 ± 0.1
  accumulation in the spleen: no accumulation
